Assay results from publication PMC8191578, “Targeting the TLR2 Receptor With a Novel Thymopentin-Derived Peptide Modulates Immune Responses” (Frontiers in Immunology, 2021).
Marks after values point to notes of the source that are not given here. Where no end group is shown, it is not given here.

Tests used:
[1] = Ex vivo stability in human serum; type: in vitro ADME; settings: human serum (Sigma), lipids removed by centrifugation, pre-incubated 15 min at 37°C, peptide 10 µg/mL, HPLC, logarithm-linear regression, mean ± SD, n=5
Method: Human serum was purchased from Sigma (St. Louis, MO, USA). […] The half-lives of CATH2, TP5, and CbTP (10 µg/mL) were evaluated in vitro following incubation at 37°C in human serum at different time points. The samples were collected into prechilled tubes containing 1 mL of acidic acetone (hydrochloric acid/acetone/H2O, 1:40:5, by volume) and centrifuged at 2,000 ×g for 20 min at 4°C.
The obtained precipitates were dried in vacuo, after which the dried precipitates were dissolved in 0.5 mL of 1 M acetic acid. The peptide analysis was carried out according to the protocol for the study of TP5 using HPLC ([26]). The half-lives of the target peptides were calculated by a logarithm-linear regression analysis of the peptide concentrations.

recombinant TLR2 = target: T1, recombinant TLR2 (Homo sapiens, UniProt O60603); experiment: Surface plasmon resonance binding to immobilized TLR2; settings: SPR, ProteOn XPR36, GLH chip, 25°C, PBS with 1% Tween 20; CbTP 0-10 μM; 1:1 model; read-out: association rate constant Ka
T1 construct: purchased R&D Systems
Method: Surface plasmon resonance (SPR) experiments were performed using a ProteOn XPR36 instrument (Bio-Rad, Hercules, CA, USA) with a ProteOn GLH sensor chip (Bio-Rad) at 25°C. The running buffer (PBS with 1% Tween 20) was continuously passed into reaction chamber. An SPR sensing chip with recombinant TLR2 (R&D Systems, Minneapolis, MN, USA) was immobilized by amino coupling to capture CbTP, as described in the manufacturer’s protocol. The binding affinity of CbTP to the TLR2-covered surface was examined in varying concentrations of the CbTP peptide (0, 1.25, 2.5, 5, and 10 μM). The running buffer was injected into the empty channels as a reference. To regenerate the chip surface at the end of each experiment, 10 mM Gly-HCl buffer (pH 2.5) was injected. Data analysis was conducted using ProteOn manager software (version 2.0). The binding curves were processed for the start injection alignment and baseline. The reference-subtracted sensorgram was then fitted to the curves labeling a homogeneous 1:1 model and protein surface data were grouped together to fit the association (K a) and dissociation (K d) rate constants. The equilibrium dissociation constant (KD) for the peptide-TLR2 interaction was calculated using the following equation: […]

T1 sequence (O60603 21-784, species assumed): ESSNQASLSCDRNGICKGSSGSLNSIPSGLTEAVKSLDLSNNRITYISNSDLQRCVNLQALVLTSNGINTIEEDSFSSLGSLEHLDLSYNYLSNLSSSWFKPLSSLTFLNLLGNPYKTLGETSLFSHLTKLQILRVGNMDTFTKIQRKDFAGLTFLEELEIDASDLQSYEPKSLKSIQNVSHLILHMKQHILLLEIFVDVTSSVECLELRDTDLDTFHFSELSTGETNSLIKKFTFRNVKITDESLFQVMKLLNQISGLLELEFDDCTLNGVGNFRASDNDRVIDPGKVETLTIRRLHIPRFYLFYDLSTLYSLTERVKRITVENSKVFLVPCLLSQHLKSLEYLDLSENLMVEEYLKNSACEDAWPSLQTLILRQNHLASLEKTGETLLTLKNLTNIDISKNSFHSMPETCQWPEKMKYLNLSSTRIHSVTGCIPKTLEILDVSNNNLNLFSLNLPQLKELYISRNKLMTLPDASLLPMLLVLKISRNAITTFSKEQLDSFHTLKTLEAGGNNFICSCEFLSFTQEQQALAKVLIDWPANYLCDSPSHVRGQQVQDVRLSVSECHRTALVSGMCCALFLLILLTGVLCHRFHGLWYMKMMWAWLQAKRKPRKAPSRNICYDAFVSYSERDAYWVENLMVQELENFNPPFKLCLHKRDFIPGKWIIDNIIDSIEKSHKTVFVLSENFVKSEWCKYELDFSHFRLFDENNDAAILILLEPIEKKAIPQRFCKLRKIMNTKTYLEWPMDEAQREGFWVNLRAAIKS

| t1/2 in human serum [1] | kon (recombinant TLR2) | Sequence |
| --- | --- | --- |
| 302 ± 34.5^a min |  | RFGRFLRKIRRFRPKVTITIQGSARFG [CATH2, Cathelicidin-2, reference compound] |
| 353 ± 41.3^a min | 3.61e+08 M⁻¹ s⁻¹ | RFGRFLRKIRRFRRKDVY [CbTP] |
